The text below walks through data of PubChem BioAssay AID493002 (Sanford-Burnham Center for Chemical Genomics, 2010).

The assay concerns S. cerevisiae tim23-1 mutant growth, luminescence. The assay can be described thus: potency against tim23-1 yeast growth – luminescence, uHTS hits, dose response (AID 493002).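 Further: yeast grown roughly 22 hours at 25 °C before the luminescence read.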
`Cc1nc2ccc(NC(=O)c3cccs3)cc2c(=O)n1Cc1ccc(Cl)cc1`: the IC50 (usually the midpoint of a concentration-inhibition curve) was 12 µM.
Regarding `O=C(Nc1ccc(Nc2ccccc2)cc1)c1ccccc1F`, the half-maximal inhibitory concentration (IC50) is 21.9 µM.
As to `CC1(C)OC(=O)C(=Cc2ccc[nH]2)C(=O)O1`, the IC50 is 8.73 µM.
For `CC1=NN(c2ccccc2)C(=O)/C1=C/c1c(O)n(-c2ccc(F)c(Cl)c2)[nH]c1=O`, the half-maximal inhibitory concentration (IC50) was 24.3 µM.
For `CCNc1nc(N)c(C(=O)C23CC4CC(CC(C4)C2)C3)s1`, the IC50 was 12.4 µM.
For the compound `Cc1ccc(Nc2cc(C)c3ccc(O)cc3n2)cc1C`, the 50% inhibitory concentration (IC50) was 11.1 µM.
For the compound `CC1(C)CC(n2c(NCCO)nc3c(c2=O)C2(CCCC2)Cc2ccccc2-3)CCO1` (stereo not drawn), the IC50 is 8.62 µM.
To `O=C(/C=C/c1ccccc1)Nc1ccc2c(c1)OCCO2` belongs 11.7 µM.
The figure for `c1ccc(-c2nc(NCc3cccs3)c3ccccc3n2)cc1` is 12.7 µM; for `COc1ccc(O)c(-c2cc(-c3cccs3)[nH]n2)c1` it is 12.4 µM.
Take `CCOC(=O)c1cnc(-n2nc(C)cc2C)nc1NCCc1ccccc1`: the 50% inhibitory concentration (IC50) was 9.75 µM.
With `CC1CCCCN1C(=O)Nc1cccc(Cl)c1` (stereo not drawn), the IC50 is 14.1 µM.
As for `Cc1ccc(-c2nnc(N3CCC(C)CC3)c3ccccc23)cc1`, the IC50 is 13.7 µM.
The figure for `CCOC(=O)Nc1ccc2c(c1)Nc1ccccc1S2` is 11.3 µM; for `Cc1nc(-c2ccc(NC(=O)c3ccccc3)cc2)cs1` it is 13 µM.
The figure for `COc1ccc(NC(=O)C#Cc2ccccc2)cc1` is 6.06 µM.
With `CCN(CC)c1ccc(/C=C2/C(=O)ON=C2C)cc1`, the IC50 is 14.6 µM.
The figure for `Cc1nc2ccccc2c(=O)n1/N=C/c1cc(Br)ccc1O` is 6.9 µM.
The figure for `O=c1c2ccccc2nc(-c2ccc([N+](=O)[O-])cc2)n1O` is 7.67 µM.
As for `CN1CCc2nc3sc(C(=O)C45CC6CC(CC(C6)C4)C5)c(N)c3cc2C1`, the half-inhibitory concentration (IC50) is 2.43 µM.
Turning to `Cc1ccc2c(c1)C(=O)C(=O)N2c1ccc(Cl)cc1`, the IC50 is 11.7 µM.
For the compound `CCC(C)c1ccc(NC(=O)COC(=O)C2CCCC2)cc1` (stereo not drawn), the IC50 is 10.7 µM.
As for `CCOC(=O)c1cccc(NC(=O)c2cc3ccccc3o2)c1`, the IC50 is 14.3 µM.
The figure for `CC[C@@]1(c2ccccc2OC)ON(c2ccccc2C(F)(F)F)C1=O` is 5.91 µM; for `COc1ccc(C(=O)c2sc(Nc3ccccc3F)nc2N)cc1` it is 8.51 µM.
Take `O=C(COC(=O)CC1CCCC1)Nc1ccc(Cl)cc1`: the concentration for half-maximal inhibition (IC50) is 13.2 µM.
Take `Cc1ccn2cc(C(=O)Nc3ccc4c(c3)OCCO4)nc2c1`: the IC50 was 7.9 µM.
Take `O=[N+]([O-])c1cc(O)c2ncccc2c1`: the 50% inhibitory concentration (IC50) is 11.4 µM.
The figure for `C=CCNC(=O)c1ccc2c3n(nc2c1)-c1ccc(Cl)cc1CO3` is 6.9 µM; for `COc1cccc(Nc2nc(-c3ccccc3)nc3ccccc23)c1` it is 5.63 µM; for `COc1ccc2c(=O)c3c(=O)n(Cc4ccco4)c(-c4ccc(C)cc4)nc3oc2c1` it is 20 µM.
To `CCc1nc(SCc2ccccn2)c2c(=O)n(C)c(=O)n(C)c2n1` belongs 16.3 µM; to `Oc1ccccc1C1NN=C(c2ccccc2)S1` (stereo not drawn), 18.3 µM; to `Cc1cc(=O)oc2c1c(C(F)(F)F)nn2-c1ccccc1`, 7.85 µM.
Regarding `Cc1ccn(-c2ccc(NC(=O)c3cccs3)cc2)n1`, the IC50 was 7.04 µM.
`COc1ccc(/C=C/C(=O)Nc2ccc3c(c2)CCC3)cc1OC`: the 50% inhibitory concentration (IC50) was 8.81 µM.
Regarding `COc1ccc(C(=O)N/N=C\c2coc3ccccc3c2=O)cc1`, the IC50 is 13.7 µM.
Turning to `c1ccc(Nc2nc(-c3ccccc3)nc3ccccc23)cc1`, the IC50 is 5.08 µM.
To `C/C(=N\Nc1ccc([N+](=O)[O-])cc1)c1ccc(O)cc1` belongs 5.17 µM; to `O=C(Nc1ccc2nc(-c3ccccc3)[nH]c2c1)c1cccs1`, 3.62 µM.
As for `Cc1csc2nc(O)c(C(=O)NCCC3=CCCCC3)c(=O)n12`, the IC50 was 4.88 µM.
With `CN(C(=O)c1ccco1)c1nnc(C23CC4CC(CC(C4)C2)C3)s1`, the IC50 was 20.8 µM.
To `O=C(Nc1ccc(Br)c(Cl)c1)C1CC1` belongs 18.3 µM; to `Cc1ccc2nc(N3C(=O)CNC3=S)sc2c1`, 3.73 µM; to `CCOC(=O)c1c(-c2ccccc2)oc2ccc(O)cc12`, 7.92 µM.
Consider `O=S(=O)(CCSc1ccccn1)c1nc2ccccc2s1`, for which the half-inhibitory concentration (IC50) was 10 µM.
To `Cc1nc(Nc2ccccc2)sc1C(=O)Nc1ccccc1` belongs 14.6 µM.
To `Cc1ccc(CNc2oc(-c3cccs3)nc2C#N)cc1` belongs 25.6 µM; to `CC(C(Sc1ccccc1N)c1ccccc1)[N+](=O)[O-]` (stereo not drawn), 3.92 µM; to `Cc1nn(CC(=O)Nc2nc3ccccc3s2)c(C)c1[N+](=O)[O-]`, 8.41 µM.
As to `Nc1nc2c(s1)CCc1c-2cnn1-c1ccccc1`, the IC50 was 12.4 µM.
With `COc1cccc(CNn2c(-c3cccc(C)c3)nc3ccccc3c2=O)c1O`, the IC50 is 10.1 µM.
Consider `O=C(NCCCc1ccccc1)c1c(O)nc2sccn2c1=O`, for which the concentration for half-maximal inhibition (IC50) is 4.63 µM.
In the case of `O=C(Nc1nc(-c2cccs2)c(-c2ccccc2)s1)c1ccco1`, the 50% inhibitory concentration (IC50) was 11.5 µM.
As to `COc1cc2ccccc2cc1C(=O)Nc1ccc(C)cc1`, the IC50 is 12.5 µM.
The figure for `Oc1ccc(N=Nc2ccccc2)cc1` is 15.3 µM; for `CCCCSC1=C(C#N)C(c2ccccc2C)CC(=O)N1` (stereo not drawn) it is 13.7 µM.
The figure for `CCC(=O)OCC(=O)[C@@]1(OC(=O)CC)[C@@H](C)C[C@H]2[C@@H]3CCC4=CC(=O)C=C[C@]4(C)[C@@]3(Cl)[C@@H](O)C[C@@]21C` is 14.9 µM.
Regarding `CCCCCOC(=O)Cc1c(C)nc(-c2ccccc2)[nH]c1=O`, the concentration for half-maximal inhibition (IC50) was 13.2 µM.
In the case of `COc1ccc(/C=C(\C#N)c2nc3ccccc3[nH]2)cc1O`, the concentration for half-maximal inhibition (IC50) is 14.8 µM.
The figure for `O=C(N/N=C/c1coc2ccc(Cl)cc2c1=O)c1cc(O)cc(O)c1` is 5.83 µM; for `O=[N+]([O-])c1ccccc1S(=O)(=O)Nc1cccc2cccnc12` it is 7.7 µM; for `COc1ccc2c(C(=O)CCl)c[nH]c2c1` it is 22.5 µM.
To `NC(N)=N/N=C/c1ccc(OCc2ccccc2Cl)cc1` belongs 18 µM; to `O=C(NCc1ccc2c(c1)OCO2)c1c(O)nc2sccn2c1=O`, 6.15 µM; to `Cn1c(C=O)c(C#Cc2ccccc2)c2ccccc21`, 6.21 µM.
The figure for `Oc1ccc(/C=N/Nc2cccc(Cl)n2)c(O)c1` is 10.6 µM; for `CC1CCc2c(c3ccccc3n2C(=O)CCl)C1` (stereo not drawn) it is 3.68 µM; for `O=C(/C=C/c1ccccc1)Oc1cccc2cccnc12` it is 21.3 µM.
`Cc1cccc(NC(=O)c2cc3ccccc3o2)c1`: the IC50 is 13 µM.
With `O=C(Nc1ccc(Oc2cccc3ccccc23)cc1)c1ccco1`, the IC50 was 8.33 µM.
To `O=C(CSc1ccccc1)N/N=C/c1ccccc1O` belongs 27.5 µM.
The figure for `c1ccc2[nH]c(CSc3nc4ccccc4o3)nc2c1` is 12.3 µM.
To `O=C(N/N=C/C=C\c1ccco1)c1cccs1` belongs 8.95 µM; to `CCN(CC)c1ccc(C(=O)N/N=C/c2ccccc2OC(F)F)cc1`, 15.1 µM.
Consider `CCNC(=O)c1c(O)c2ccccc2[nH]c1=O`, for which the IC50 was 33.5 µM.
The figure for `COc1ccccc1-c1cc(C(=O)N/N=C/c2ccc(C)s2)c2ccccc2n1` is 18.8 µM; for `CCOC(=O)c1cccnc1SCc1cc(=O)n2ccccc2n1` it is 9.96 µM.
